# Source: ChEMBL document CHEMBL1150831, “Immunosuppressive sesquiterpene alkaloids from Tripterygium wilfordii” (2001)
# Active and inactive are the calls of the source. The calls are words filed in the database; no cut-off is given here.
# What was measured:
# Type in all cases: functional
# [1] = test system: PBMC; experiment: Immunosuppressive activity in human PBMC assessed as inhibition of LPS-stimulated IL8 production at 10 ug/mL after 18 to 24 hrs by ELISA
# [2] = test system: PBMC; experiment: Immunosuppressive activity in human PBMC assessed as inhibition of LPS-stimulated IL4 production at 10 ug/mL after 18 to 24 hrs by ELISA
# [3] = test system: PBMC; experiment: Immunosuppressive activity in human PBMC assessed as inhibition of LPS-stimulated TNFalpha production at 10 ug/mL after 18 to 24 hrs by ELISA
# [4] = test system: PBMC; experiment: Immunosuppressive activity in human PBMC assessed as inhibition of LPS-stimulated IFN-gamma production at 10 ug/mL after 18 to 24 hrs by ELISA
# [5] = test system: PBMC; experiment: Immunosuppressive activity in human PBMC assessed as inhibition of LPS-stimulated IL2 production at 10 ug/mL after 18 to 24 hrs by ELISA
# [6] = test system: PBMC; experiment: Immunosuppressive activity in human PBMC assessed as inhibition of LPS-stimulated IL1-beta production at 10 ug/mL after 18 to 24 hrs by ELISA
Structure (SMILES),inhibition at 10 µg/mL [1],inhibition at 10 µg/mL [2],inhibition at 10 µg/mL [3],inhibition at 10 µg/mL [4],inhibition at 10 µg/mL [5],inhibition at 10 µg/mL [6],inhibition [1],inhibition [2],inhibition [3],inhibition [4],inhibition [5],inhibition [6]
CC(=O)OC[C@]12[C@H](OC(C)=O)[C@H](OC(C)=O)[C@@H]3[C@@H](OC(=O)c4ccccc4)[C@@]14O[C@@]3(C)COC(=O)c1cccnc1C(C)C(C)C(=O)O[C@@H]([C@H](OC(C)=O)[C@@H]2OC(=O)c1ccccc1)[C@]4(C)O (stereo partly specified),97%,100%,76%,92%,100%,49%,,,,,,
CC(=O)OC[C@]12[C@H](OC(C)=O)[C@H](OC(C)=O)[C@@H]3[C@@H](OC(C)=O)[C@@]14O[C@@]3(C)COC(=O)c1cccnc1CC[C@@](C)(OC(=O)c1ccco1)C(=O)O[C@@H]([C@H](OC(C)=O)[C@@H]2OC(C)=O)[C@]4(C)O,,,,,,,inactive,inactive,inactive,inactive,inactive,inactive
CC(=O)OC[C@]12[C@H](OC(C)=O)[C@H](OC(C)=O)[C@@H]3[C@@H](OC(C)=O)[C@@]14O[C@@]3(C)COC(=O)c1cccnc1CC[C@H](C)C(=O)O[C@@H]([C@H](OC(=O)c1ccccc1)[C@@H]2OC(C)=O)[C@]4(C)O,1%,16%,79%,41%,67%,64%,,,,,,
CC(=O)OC[C@]12[C@H](OC(C)=O)[C@H](OC(C)=O)[C@@H]3[C@@H](OC(C)=O)[C@@]14O[C@@]3(C)COC(=O)c1cnccc1C(C)C(C)(O)C(=O)O[C@@H]([C@H](OC(=O)c1ccccc1)[C@@H]2OC(C)=O)[C@]4(C)O (stereo partly specified) [HYPOGLAUNINE C],-26%,51%,-28%,20%,57%,2%,,,,,,
CC(=O)OC[C@]12[C@H](OC(C)=O)[C@H](OC(C)=O)[C@@H]3[C@@H](OC(=O)c4ccccc4)[C@@]14O[C@@]3(C)COC(=O)c1cccnc1C(C)C(C)C(=O)O[C@@H]([C@H](O)[C@@H]2OC(C)=O)[C@]4(C)O (stereo partly specified),,,,,,,inactive,inactive,inactive,inactive,inactive,inactive
CC(=O)OC[C@]12[C@H](OC(C)=O)[C@H](OC(C)=O)[C@@H]3[C@@H](OC(=O)c4ccccc4)[C@@]14O[C@@]3(C)COC(=O)c1cnccc1C(C)C(C)(O)C(=O)O[C@@H]([C@H](OC(=O)c1ccccc1)[C@@H]2OC(C)=O)[C@]4(C)O (stereo partly specified),,,,,,,inactive,inactive,inactive,inactive,inactive,inactive
CC(=O)OC[C@]12[C@H](OC(C)=O)[C@H](OC(C)=O)[C@@H]3[C@@H](OC(C)=O)[C@@]14O[C@@]3(C)COC(=O)c1cccnc1CC[C@H](C)C(=O)O[C@@H]([C@H](OC(=O)c1ccco1)[C@@H]2OC(C)=O)[C@]4(C)O,7%,-53%,64%,4%,22%,53%,,,,,,
CC(=O)OC[C@]12[C@H](OC(C)=O)[C@H](OC(C)=O)[C@@H]3[C@@H](OC(=O)c4ccccc4)[C@@]14O[C@@]3(C)COC(=O)c1cccnc1CC[C@@](C)(OC(=O)c1ccccc1)C(=O)O[C@@H]([C@H](OC(C)=O)[C@@H]2OC(C)=O)[C@]4(C)O [WILFORNINE C],-8%,39%,-11%,32%,51%,-6%,,,,,,
COC(=O)C[C@@H]1C(=O)CCC(C)C(=O)O[C@@H]2[C@@H]3[C@@H](OC(C)=O)[C@@]45O[C@@]3(C)COC(=O)c3cccnc3C(C)C(C)C(=O)O[C@@H]([C@H](OC(C)=O)[C@H](OC(C)=O)[C@@]4(COC1=O)[C@@H]2OC(C)=O)[C@]5(C)O (stereo partly specified) [TRIPTONINE A],43%,-20%,62%,17%,33%,55%,,,,,,
CC(=O)OC[C@]12[C@H](OC(C)=O)[C@H](OC(C)=O)[C@@H]3[C@@H](OC(C)=O)[C@@]14O[C@@]3(C)COC(=O)c1cccnc1CC[C@@](C)(O)C(=O)O[C@@H]([C@H](OC(=O)c1ccccc1)[C@@H]2OC(C)=O)[C@]4(C)O,8%,50%,2%,4%,35%,-6%,,,,,,
CC(=O)OC[C@]12[C@H](OC(C)=O)[C@H](OC(C)=O)[C@@H]3[C@@H](OC(C)=O)[C@@]14O[C@@]3(C)COC(=O)c1cccnc1CC[C@@](C)(OC(=O)c1ccccc1)C(=O)O[C@@H]([C@H](OC(C)=O)[C@@H]2OC(C)=O)[C@]4(C)O [WILFORNINE A],2%,50%,0%,8%,23%,-4%,,,,,,
CC(=O)OC[C@]12[C@H](OC(C)=O)[C@H](OC(C)=O)[C@@H]3[C@@H](OC(C)=O)[C@@]14O[C@@]3(C)COC(=O)c1cnccc1C(C)C(C)C(=O)O[C@@H]([C@H](OC(C)=O)[C@@H]2O)[C@]4(C)O (stereo partly specified),,,,,,,inactive,inactive,inactive,inactive,inactive,inactive
CC(=O)OC[C@]12[C@H](OC(C)=O)C(=O)[C@@H]3[C@@H](OC(C)=O)[C@@]14O[C@@]3(C)COC(=O)c1cnccc1CCC(C)(O)C(=O)O[C@@H]([C@H](OC(C)=O)[C@@H]2OC(C)=O)[C@]4(C)O (stereo partly specified),64%,77%,10%,62%,47%,18%,,,,,,
CC(=O)OC[C@]12[C@H](OC(C)=O)[C@H](OC(=O)c3cccnc3)[C@@H]3[C@@H](OC(C)=O)[C@@]14O[C@@]3(C)COC(=O)c1cccnc1C(C)C(C)C(=O)O[C@@H]([C@H](OC(C)=O)[C@@H]2OC(C)=O)[C@]4(C)O (stereo partly specified),,,,,,,inactive,inactive,inactive,inactive,inactive,inactive
CC(=O)OC[C@]12[C@H](OC(C)=O)[C@H](OC(C)=O)[C@@H]3[C@@H](OC(C)=O)[C@@]14O[C@@]3(C)COC(=O)c1cccnc1C(C)C(C)C(=O)O[C@@H]([C@H](OC(C)=O)[C@@H]2OC(C)=O)[C@]4(C)O (stereo partly specified) [EUONYMINE],31%,11%,55%,28%,53%,47%,,,,,,
CC(=O)OC[C@]12[C@H](OC(C)=O)[C@H](OC(C)=O)[C@@H]3[C@@H](O)[C@@]14O[C@@]3(C)COC(=O)c1cccnc1CC[C@@](C)(OC(=O)c1ccccc1)C(=O)O[C@@H]([C@H](OC(C)=O)[C@@H]2OC(C)=O)[C@]4(C)O [WILFORNINE B],-23%,100%,-6%,7%,22%,-3%,,,,,,
CC(=O)OC[C@]12[C@H](OC(C)=O)[C@H](OC(C)=O)[C@@H]3[C@@H](OC(=O)c4ccccc4)[C@@]14O[C@@]3(C)COC(=O)c1cccnc1C(C)C(C)C(=O)O[C@@H]([C@H](OC(=O)c1cccnc1)[C@@H]2OC(C)=O)[C@]4(C)O (stereo partly specified) [HYPONINE D],-15%,66%,-9%,13%,45%,7%,,,,,,
CC(=O)OC[C@]12[C@H](OC(C)=O)[C@H](OC(C)=O)[C@@H]3[C@@H](OC(C)=O)[C@@]14O[C@@]3(C)COC(=O)c1cccnc1CC[C@@](C)(O)C(=O)O[C@@H]([C@H](OC(C)=O)[C@@H]2OC(C)=O)[C@]4(C)O,,,,,,,inactive,inactive,inactive,inactive,inactive,inactive
CC(=O)OC[C@]12[C@H](OC(C)=O)[C@H](OC(C)=O)[C@@H]3[C@@H](OC(=O)c4ccccc4)[C@@]14O[C@@]3(C)COC(=O)c1cccnc1C(C)C(C)C(=O)O[C@@H]([C@H](OC(C)=O)[C@@H]2OC(C)=O)[C@]4(C)O (stereo partly specified),84%,100%,37%,99%,100%,43%,,,,,,
CC(=O)OC[C@]12[C@H](OC(C)=O)[C@H](OC(C)=O)[C@@H]3[C@@H](OC(C)=O)[C@@]14O[C@@]3(C)COC(=O)c1cccnc1C(C)C(C)C(=O)O[C@@H]([C@H](OC(C)=O)[C@@H]2OC(=O)c1ccccc1)[C@]4(C)O (stereo partly specified) [MAYTEINE],2%,14%,-9%,36%,55%,2%,,,,,,
CC(=O)OC[C@]12[C@H](OC(C)=O)C(=O)[C@@H]3[C@@H](OC(C)=O)[C@@]14O[C@@]3(C)COC(=O)c1cccnc1CC[C@@](C)(O)C(=O)O[C@@H]([C@H](OC(C)=O)[C@@H]2OC(C)=O)[C@]4(C)O,,,,,,,inactive,inactive,inactive,inactive,inactive,inactive
